According to patent publication US11160843B2, “Oxytocin and opioid antagonists for treatment of social dysfunction disorder” (YALE UNIVERSITY, priority 2018, dated 2021):

Legend:
[1] = tested on: rhesus macaques (Macaca mulatta); assay: Live gaze interaction task (social attention to a conspecific); type: in vivo; details: for attention to the conspecific (looking at the eyes) following mutual eye contact, compared with SAL: 0.5-3 s after mutual eye contact, permutation test, OTNAL P<0.01, OT, NAL both P>0.05
Description: Nine adult rhesus macaques (Macaca mulatta) were selected for study. The animals (six males and three females) were all housed together in a colony in either pairs or triads. Each animal was kept on a 12-h light/dark cycle and had access to food 24 h each day with controlled access to water during testing. Before testing began, each monkey received a surgically implanted head post (Crist Instruments, Gray Matter Research) for restraining its head while tracking eye positions. At the time of surgery, anesthesia was induced with ketamine hydrochloride (10 mg/kg i.m.) and maintained with isoflurane (1.0-3.0%, to effect). Aseptic procedures were used, and heart rate, respiration rate, blood pressure, expired CO2, and body temperature were monitored throughout the procedure. Monkeys were allowed an additional 30-40 d of recovery after the implant surgery.
All of the tested subjects received pharmacological manipulations through a pediatric nebulizer (PARI Baby Nebulizer; PARI Respiratory Equipment) with a cone-shaped facemask. The facemask, designed for canine anesthesia, was fitted entirely over the muzzle area, and the subject breathed freely through the nose for the duration of the dose administration. Before experimental sessions, monkeys were first incrementally habituated to the facemask and then to the nebulizer until they were completely relaxed during the procedure, which typically took about 3-5 d. […]
Gaze calibration procedures for studying dyadic gaze interactions reported by Dal Monte, et al., 2016, J. Neurophysiol. […] For analysis purposes, the location was determined where the animal was looking on a theoretical screen located further from the actual screen on which the animal was calibrated. With trigonometric corrections, the ROIs were identified and matched based on individual measurements of each monkey's face to the dimension of fixations as measured from the calibration screen. […]
Two animals sat in front of each other with no task constraints while the eye positions of both animals were recorded simultaneously and continuously (FIG. 1A). […]

[2] = tested on: social partners; details: background statement; cited from earlier work
[3] = tested on: rhesus macaques (Macaca mulatta); assay: NAL dose-response curve, free-viewing task (fixation frequency to face images); type: in vivo; details: intranasal NAL 0.5, 1, 2 mg via nebulizer, P<0.001 for 1 mg over 2 mg and over 0.5 mg
Excerpt: All of the tested subjects received pharmacological manipulations through a pediatric nebulizer (PARI Baby Nebulizer; PARI Respiratory Equipment) with a cone-shaped facemask. The facemask, designed for canine anesthesia, was fitted entirely over the muzzle area, and the subject breathed freely through the nose for the duration of the dose administration. Before experimental sessions, monkeys were first incrementally habituated to the facemask and then to the nebulizer until they were completely relaxed during the procedure, which typically took about 3-5 d. This habituation procedure was performed with saline (SAL). During both the habituation phase and the testing phase, the animals' heads were restrained to minimize movement and enhance administration reliability. Each of the different pharmacology manipulations tested was diluted to a volume of 2 mL using sterile SAL and was administered over the course of 8-10 min. In addition, experimental sessions were conducted at the same time of day to control for diurnal fluctuations. […]
On the day of the experiment, monkeys were transported in a primate chair from the colony room to the experimental room. […] During the 15-s period, monkeys were free to explore, or not explore, each face presented while an infrared eye-tracking camera continuously recorded their eye positions (Eyelink; SR Research). […]

Row | SMILES | attention to the conspecific (looking at the eyes) following mutual eye contact, compared with SAL [1] | frequency of fixations to the eyes of a conspecific, normalized by SAL ([1]; OT 24 IU, NAL 1 mg, intranasal, P=0.004 OTNAL over SAL, P=0.069 over NAL, P=0.022 over OT, OT over SAL P=0.059 (marginal)) | physical contact between social partners [2] | solicitation for social contact, such as grooming and proximity [2] | frequency of fixations to the eyes, normalized by SAL [3] | frequency of fixations to faces, normalized by SAL ([3]; inverted U-shaped curve)
1 | CC[C@H](C)[C@@H]1NC(=O)[C@H](Cc2ccc(O)cc2)NC(=O)[C@@H](N)CSSC[C@@H](C(=O)N2CCC[C@H]2C(=O)N[C@@H](CC(C)C)C(=O)NCC(N)=O)NC(=O)[C@H](CC(N)=O)NC(=O)[C@H](CCC(N)=O)NC1=O [OT, 1-({(4R,7S,10S,13S,16S,19R)-19-amino-7-(2-amino-2-oxoethyl)-10-(3-amino-3-oxopropyl)-16-(4-hydroxybenzyl)-13-[(1S)-1-methylpropyl]-6,9,12,15,18-pentaoxo-1,2-dithia-5,8,11,14,17-pentaazacycloicosan-4-yl}carbonyl)-L-prolyl-L-leucylglycinamide] | neither OT nor NAL administered alone had a significant effect | overall increased fixations to the eyes compared with SAL | – | – | – | –
2 | CN1CC[C@]23c4c5ccc(O)c4O[C@H]2[C@@H](O)C=C[C@H]3[C@H]1C5 [morphine] | – | – | decrease physical contact between social partners | – | – | –
3 | C=CCN1CC[C@]23c4c5ccc(O)c4O[C@H]2C(=O)CC[C@@]3(O)[C@H]1C5 [NAL, naloxone] | neither OT nor NAL administered alone had a significant effect | – | – | increases solicitation for social contact | maximal effect again clearly occurred following the 1-mg dose | maximal effects clearly occurred following the 1-mg dose
